Eight molecules from patent publication US20240343717A1, “MICROBIOCIDAL PYRAZOLE DERIVATIVES” (SYNGENTA CROP PROTECTION AG, priority 2021, published 2024) can be followed below.

For series [1], the system named is Monographella nivalis (Microdochium nivale). In words: Monographella nivalis (Microdochium nivale) / liquid culture (foot rot cereals). The conditions noted are these: growth inhibition photometrically 4-5 days after application, read-out: control of Monographella nivalis. In kind it is cell-based. The method in brief: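 Fungal conidia mixed directly into potato dextrose broth and added to test compound delivered in DMSO. Incubated at 24° C; growth inhibition read photometrically 4-5 days after application.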

Series [2] relates to Phaeosphaeria nodorum (Septoria nodorum). Briefly: Phaeosphaeria nodorum (Septoria nodorum) / wheat / leaf disc preventative (glume blotch). The class given is in vivo. The following applies: Parastagonospora nodorum, foliar, wheat leaf segments, inoculated 2 days after application. The method in brief:
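Wheat cv. Kanzler leaf segments on agar sprayed preventatively with formulated compound diluted in water, then inoculated with spore suspension 2 days after application. Incubated at 20° C, 75% rh, 12 h light/12 h dark; percent disease control versus untreated scored 5-7 days after application.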

Series [3] has as its system Mycosphaerella arachidis (Cercospora arachidicola). In words: Mycosphaerella arachidis (Cercospora arachidicola) / liquid culture (early leaf spot). In kind it is cell-based. The following applies: growth inhibition photometrically 4-5 days after application, read-out: control of Mycosphaerella arachidis. The method in brief: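 Spores taken straight from cryostorage are suspended in potato dextrose broth and added to test compound in DMSO. Plates are incubated at 24° C. Growth inhibition is scored photometrically 4-5 days after application.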

In series [4] the test system is Fusarium culmorum. In words: microbe, parasite or virus in culture. In kind it is cell-based. The following applies: read-out: control of Fusarium culmorum.
For series [5], the system named is Mycosphaerella graminicola (Septoria tritici). In words: Mycosphaerella graminicola (Septoria tritici) / liquid culture (Septoria blotch). In kind it is cell-based. The conditions noted are these: Zymoseptoria tritici, growth inhibition photometrically 4-5 days after application, read-out: control of Mycosphaerella graminicola. The method in brief:
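Conidia suspended in potato dextrose broth and added to test compound supplied in DMSO in 96-well plates. Incubated at 24 °C, and growth inhibition read photometrically 4-5 days after application.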

The test system of series [6] is Botryotinia fuckeliana (Botrytis cinerea). Briefly: Botryotinia fuckeliana (Botrytis cinerea) / liquid culture (gray mould). The class given is cell-based. The conditions noted are these: growth inhibition photometrically 3-4 days after application, read-out: control of Botryotinia fuckeliana. The method in brief:
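Conidia suspended in Vogels broth and added to compound dispensed from DMSO. Incubated at 24°C, with growth inhibition measured photometrically 3–4 days later.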

Series [7] relates to Fusarium culmorum. Briefly: whole plant or invertebrate. The class given is in vivo. The following applies: in Triticum aestivum, read-out: control of Fusarium culmorum.
Another series deals with Pyrenophora teres. In words: Pyrenophora teres / barley / leaf disc preventative (net blotch). The class given is in vivo. The following applies: foliar, barley leaf segments, inoculated 2 days after application. The method in brief: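 Barley cv. Hasso leaf segments on agar sprayed with formulated compound, inoculated with spores 2 days later. Incubated at 20 °C, 65% rh, 12 h light/dark; disease control versus untreated assessed 5–7 days after application.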

A further series relates to Sclerotinia sclerotiorum. In words: Sclerotinia sclerotiorum / liquid culture (cottony rot). In kind it is cell-based. The following applies: growth inhibition photometrically 3-4 days after application, read-out: control of Sclerotinia sclerotiorum. The protocol: Example B15: Sclerotinia sclerotiorum/Liquid Culture (Cottony Rot) Mycelia fragments of a newly grown liquid culture of the fungus are directly mixed into nutrient broth (PDB potato dextrose broth). After placing a (DMSO) solution of test compound into a microtiter plate (96-well format) the nutrient broth containing the fungal material is added. The test plates are incubated at 24° C. and the inhibition of growth is determined photometrically 3-4 days after application.

In a further series the test system is Alternaria solani. Briefly: Alternaria solani / tomato / leaf disc (early blight). The class given is in vivo. The following applies: foliar, tomato leaf disks, sprayed 2 days before inoculation, compared to untreated control. The protocol:
Example B1: Alternaria solani/Tomato/Leaf Disc (Early Blight) Tomato leaf disks cv. Baby are placed on agar in multiwell plates (24-well format) and sprayed with the formulated test compound diluted in water. The leaf disks are inoculated with a spore suspension of the fungus 2 days after application. The inoculated leaf disks are incubated at 23° C./21° C.

Series [8] relates to Glomerella lagenarium (Colletotrichum lagenarium). In words: Glomerella lagenarium (Colletotrichum lagenarium) / liquid culture (anthracnose). The class given is cell-based. The following applies: Colletotrichum orbiculare, growth inhibition photometrically 3-4 days after application, read-out: control of Glomerella lagenarium. The method in brief:
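Cryo-stored conidia in potato dextrose broth were added to test compound in DMSO. Plates were incubated at 24° C, and growth inhibition was read photometrically 3-4 days after application.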

Series [9] deals with Blumeria graminis f. sp. tritici (Erysiphe graminis f. sp. tritici). In words: Blumeria graminis f. sp. tritici / wheat / leaf disc preventative (powdery mildew on wheat). In kind it is in vivo. The following applies: foliar, wheat leaf segments, inoculated 1 day after application. The method in brief: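 Wheat cv. Kanzler leaf segments on agar sprayed with formulated compound in water, inoculated 1 day later by shaking mildew-infected plants overhead. Incubated at 20° C, 60% rh, 24 h dark then 12 h light/12 h dark. Percent disease control versus untreated scored 6-8 days after application.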

The subject of series [10] is Gibberella zeae (Fusarium graminearum). Briefly: whole plant or invertebrate. The class given is in vivo. The following applies: in Triticum aestivum, read-out: control of Gibberella zeae.

For the molecule `Cn1cc([C@@](C)(CNC(=O)c2cc(-c3ccc(F)cc3F)on2)c2cccc(Cl)n2)cn1` [Compound P-29, N-[(2S)-2-(6-chloro-2-pyridyl)-2-(1-methylpyrazol-4-yl)propyl]-5-(2,4-difluorophenyl) isoxazole-3-carboxamide], the inhibition of growth at 20 ppm (in series [1]; in [3]; in the series on Fusarium culmorum [4]; in series [5]; in series [6]; with Sclerotinia sclerotiorum) was at least 80% each time. In series [8], the inhibition of growth at 20 ppm is at least 80%. The pest or weed control at 200 ppm (in series [2]; with Fusarium culmorum [7]; with Pyrenophora teres; with Alternaria solani; in series [9]) was at least 80% throughout.

Take `Cn1cc(C(C)(CNC(=O)c2nnc(-c3ccc(F)cc3F)s2)c2cccc(Br)n2)cn1` (centres unmarked) [Compound P-5, N-[2-(6-bromo-2-pyridyl)-2-(1-methylpyrazol-4-yl)propyl]-5-(2,4-difluorophenyl)-1,3,4-thiadiazole-2-carboxamide]: the inhibition of growth at 20 ppm (in series [1]; in series [3]; in the series with Fusarium culmorum [4]; in [5]; in series [6]; in series [8]) was at least 80% throughout. Further, the pest or weed control at 200 ppm (in series [10]; in series [2]; in the series with Fusarium culmorum [7]; in the series with Pyrenophora teres; in the series on Alternaria solani; in series [9]) was at least 80% throughout.

For the molecule `CCC(CNC(=O)c1cc(-c2ccc(F)cc2F)on1)(c1cnn(C)c1)c1cccc(Cl)n1` (centres unmarked) [Compound P-31, N-[2-(6-chloro-2-pyridyl)-2-(1-methylpyrazol-4-yl)butyl]-5-(2,4-difluorophenyl) isoxazole-3-carboxamide], the inhibition of growth at 20 ppm (in series [1]; in [3]; with Fusarium culmorum [4]; in series [5]; in series [6]; in the series with Sclerotinia sclerotiorum) was at least 80% in each case. In addition, the inhibition of growth at 20 ppm in series [8] is at least 80%. The pest or weed control at 200 ppm (in [2]; in the series with Fusarium culmorum [7]; in the series with Pyrenophora teres; in the series with Alternaria solani; in series [9]) was at least 80% in each case.

`Cc1cccc(C(C)(CNC(=O)c2cc(-c3ccc(F)cc3F)on2)c2cnn(C)c2)n1` (centres unmarked) [Compound P-16, 5-(2,4-difluorophenyl)-N-[2-(1-methylpyrazol-4-yl)-2-(6-methyl-2-pyridyl)propyl] isoxazole-3-carboxamide]: the inhibition of growth at 20 ppm (in series [1]; in series [3]; with Fusarium culmorum [4]; in series [5]; in series [6]; with Sclerotinia sclerotiorum) was at least 80% throughout. In addition, the inhibition of growth at 20 ppm in [8] was at least 80%. Further, the pest or weed control at 200 ppm (in series [10]; in the series with Fusarium culmorum [7]; in the series on Pyrenophora teres; in series [9]) was at least 80% each time.

Usually melting point stands for the temperature, or range, at which the solid turns liquid. `Cn1cc(C(C)(CNC(=O)c2cc(-c3ccc(F)cc3F)on2)c2cccc(Br)n2)cn1` (centres unmarked) [Compound P-24, N-[2-(6-bromo-2-pyridyl)-2-(1-methylpyrazol-4-yl)propyl]-5-(2,4-difluorophenyl) isoxazole-3-carboxamide] came in with a melting point of 141 to 143 °C. Further, in [1], the inhibition of growth at 20 ppm was at least 80%. The pest or weed control at 200 ppm in [10] is at least 80%. For the same molecule, the pest or weed control at 200 ppm in series [2] was at least 80%. For the same molecule, the inhibition of growth at 20 ppm in series [3] is at least 80%. Besides, the inhibition of growth at 20 ppm in the series on Fusarium culmorum [4] was at least 80%. In series [5], the inhibition of growth at 20 ppm was at least 80%. Besides, the inhibition of growth at 20 ppm in [6] was at least 80%. In the series on Pyrenophora teres, the pest or weed control at 200 ppm was at least 80%. Further, the inhibition of growth at 20 ppm with Sclerotinia sclerotiorum is at least 80%. Also, the pest or weed control at 200 ppm in the series on Alternaria solani is at least 80%. In series [8], the inhibition of growth at 20 ppm is at least 80%. In addition, the pest or weed control at 200 ppm in series [9] is at least 80%.

Regarding `Cc1cccc(C(C)(CNC(=O)c2nnc(-c3ccc(F)cc3F)s2)c2cnn(C)c2Cl)n1` (centres unmarked) [Compound P-82, N-[2-(5-chloro-1-methyl-pyrazol-4-yl)-2-(6-methyl-2-pyridyl)propyl]-5-(2,4-difluorophenyl)-1,3,4-thiadiazole-2-carboxamide], the inhibition of growth at 20 ppm (in series [1]; in [3]; in the series with Fusarium culmorum [4]; in [5]; in series [6]; with Sclerotinia sclerotiorum) was at least 80% throughout. The inhibition of growth at 20 ppm in series [8] was at least 80%. Also, the pest or weed control at 200 ppm (in [10]; in [2]; with Pyrenophora teres; with Alternaria solani; in [9]) was at least 80% in each case.

For `COc1cc(Cl)nc([C@@](C)(CNC(=O)c2cc(-c3ccc(F)cc3F)no2)c2cnn(C)c2)c1` [Compound P-46, N-[(2R)-2-(6-chloro-4-methoxy-2-pyridyl)-2-(1-methylpyrazol-4-yl)propyl]-3-(2,4-difluorophenyl) isoxazole-5-carboxamide], the inhibition of growth at 20 ppm (in [1]; in series [3]; in the series on Fusarium culmorum [4]; in [5]; in [6]; in series [8]) was at least 80% in each case. Further, the pest or weed control at 200 ppm (in series [10]; in the series with Fusarium culmorum [7]) was at least 80% throughout.

Take `Cn1cc([C@@](C)(CNC(=O)c2nnc(-c3ccc(F)cc3F)s2)c2cccc(Cl)n2)cn1` [Compound P-34, N-[(2S)-2-(6-chloro-2-pyridyl)-2-(1-methylpyrazol-4-yl)propyl]-5-(2,4-difluorophenyl)-1,3,4-thiadiazole-2-carboxamide]: the inhibition of growth at 20 ppm (in series [1]; in series [3]; in the series with Fusarium culmorum [4]; in [5]; in [6]; with Sclerotinia sclerotiorum) was at least 80% each time. Also, the inhibition of growth at 20 ppm in series [8] is at least 80%. The pest or weed control at 200 ppm (in series [2]; in the series with Fusarium culmorum [7]; in the series with Pyrenophora teres; with Alternaria solani; in series [9]) was at least 80% in each case.
